In patent US11998010B2, “Pesticidal mixtures” (BASF SE, priority 2018, dated 2024):

Test system: Alternaria solani
Assay: Microtest: activity against early blight caused by Alternaria solani (micro titer plate, absorption at 405 nm)
Type: cell-based
Settings: single compound, 7 days after inoculation, 0 = growth as untreated control, 100 = no growth
Experimental: The stock solutions were mixed according to the ratio, pipetted onto a micro titer plate (MTP) and diluted with water to the stated concentrations. A spore suspension of Alternaria solani in an aqueous biomalt or yeast-bactopeptone-glycerine or DOB solution was then added. The plates were placed in a water vapor-saturated chamber at a temperature of 18° C. Using an ab-sorption photometer, the MTPs were measured at 405 nm 7 days after the inoculation. The measured parameters were compared to the growth of the active compound-free control variant (100%) and the fungus-free and active compound-free blank value to determine the relative growth in % of the pathogens in the respective active compounds. These percentages were converted into efficacies. […] The expected efficacies of active compound mixtures were determined using Colby's formula [R. S. Colby, “Calculating synergistic and antagonistic responses of herbicide combinations”, Weeds 15, 20-22 (1967)] and compared with the observed efficacies.

| Structure (SMILES) | Observed efficacy (0.25 ppm) | Observed efficacy (1 ppm) | Observed efficacy (4 ppm) | Observed efficacy (0.016 ppm) |
| --- | --- | --- | --- | --- |
| N#Cc1ccc(Oc2ccc(C(F)(F)C(O)(Cn3ncnc3S)c3ccc(F)cc3F)nc2)cc1 (stereo not shown) [Compound I, 4-[[6-[2-(2,4-difluorophenyl)-1,1-difluoro-2-hydroxy-3-(5-sulfanyl-1,2,4-triazol-1-yl)propyl]-3-pyridyl]oxy]benzonitrile] | 7 | 8 | 30 |  |
| Cc1cccc(-n2nnn(C)c2=O)c1COc1ccn(-c2ccc(Cl)cc2)n1 [Compound II, 1-[2-[[1-(4-chlorophenyl)pyrazol-3-yl]oxymethyl]-3-methyl-phenyl]-4-methyl-tetrazol-5-one, reference compound] |  |  |  | 11 |
